Test results published in ChEMBL document CHEMBL4507301 (2021).

Key:
[1] = biological target: Alpha-1D adrenergic receptor (Rattus norvegicus) (UniProt P23944); experiment: Inhibition of phenylephrine-induced contractions in bladder strips from rats with bladder outlet obstruction; assay type: tissue-based; conditions: Urinary bladder
[2] = biological target: Beta-1 adrenergic receptor (Homo sapiens) (UniProt P08588); experiment: beta1 Eurofins-Panlabs ligand profiling; conditions: Compound concentration 10.0 uM
[3] = biological target: 5-hydroxytryptamine receptor 5A (Homo sapiens) (UniProt P47898); conditions: Compound concentration 10.0 uM
[4] = biological target: T1, Alpha-1A adrenergic receptor (Homo sapiens, UniProt P35348); experiment: GPCRScan assay: inhibition of Alpha1A; set-up: radioligand conc. used [nm] 0.2 - 1.0, parental cells stable HEK
[5] = biological target: Alpha-1D adrenergic receptor (Homo sapiens, UniProt P25100); experiment: GPCRScan assay: inhibition of Alpha1D; set-up: radioligand conc. used [nm] 0.3 – 1.0, parental cells stable
[6] = biological target: Alpha-1B adrenergic receptor (Homo sapiens, UniProt P35368); experiment: Binding assay (ADRA1B)
[7] = biological target: T1, Alpha-1A adrenergic receptor
[8] = biological target: Muscarinic acetylcholine receptor M4 (Homo sapiens) (UniProt P08173); conditions: Compound concentration 10.0 uM
Sequence of Muscarinic acetylcholine receptor M4 (Homo sapiens) (P08173 whole entry): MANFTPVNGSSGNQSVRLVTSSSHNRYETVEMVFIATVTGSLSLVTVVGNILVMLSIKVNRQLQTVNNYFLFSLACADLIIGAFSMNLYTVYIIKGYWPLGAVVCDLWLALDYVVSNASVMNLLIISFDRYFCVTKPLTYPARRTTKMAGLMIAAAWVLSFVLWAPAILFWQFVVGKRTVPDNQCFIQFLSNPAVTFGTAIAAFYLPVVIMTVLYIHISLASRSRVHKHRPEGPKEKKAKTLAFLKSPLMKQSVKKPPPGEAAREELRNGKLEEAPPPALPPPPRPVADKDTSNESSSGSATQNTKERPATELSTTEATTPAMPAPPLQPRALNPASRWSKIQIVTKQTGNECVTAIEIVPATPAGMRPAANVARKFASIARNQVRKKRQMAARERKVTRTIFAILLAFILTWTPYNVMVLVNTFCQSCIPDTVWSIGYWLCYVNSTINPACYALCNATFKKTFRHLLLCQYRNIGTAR

T1 sequence (P35348 whole entry): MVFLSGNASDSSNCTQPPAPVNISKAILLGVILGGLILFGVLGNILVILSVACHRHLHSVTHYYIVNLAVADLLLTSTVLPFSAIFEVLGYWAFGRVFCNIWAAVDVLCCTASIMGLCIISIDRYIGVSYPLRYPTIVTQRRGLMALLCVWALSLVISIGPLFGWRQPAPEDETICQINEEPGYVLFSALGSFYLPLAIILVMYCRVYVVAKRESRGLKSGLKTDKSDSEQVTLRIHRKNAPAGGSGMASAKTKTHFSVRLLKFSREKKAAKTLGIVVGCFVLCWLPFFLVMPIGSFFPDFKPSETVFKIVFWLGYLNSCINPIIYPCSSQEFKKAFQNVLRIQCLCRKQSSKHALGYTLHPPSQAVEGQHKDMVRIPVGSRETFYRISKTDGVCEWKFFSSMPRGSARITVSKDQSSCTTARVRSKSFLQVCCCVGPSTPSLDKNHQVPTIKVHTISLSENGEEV
Sequence of Alpha-1D adrenergic receptor (Rattus norvegicus) (P23944 whole entry): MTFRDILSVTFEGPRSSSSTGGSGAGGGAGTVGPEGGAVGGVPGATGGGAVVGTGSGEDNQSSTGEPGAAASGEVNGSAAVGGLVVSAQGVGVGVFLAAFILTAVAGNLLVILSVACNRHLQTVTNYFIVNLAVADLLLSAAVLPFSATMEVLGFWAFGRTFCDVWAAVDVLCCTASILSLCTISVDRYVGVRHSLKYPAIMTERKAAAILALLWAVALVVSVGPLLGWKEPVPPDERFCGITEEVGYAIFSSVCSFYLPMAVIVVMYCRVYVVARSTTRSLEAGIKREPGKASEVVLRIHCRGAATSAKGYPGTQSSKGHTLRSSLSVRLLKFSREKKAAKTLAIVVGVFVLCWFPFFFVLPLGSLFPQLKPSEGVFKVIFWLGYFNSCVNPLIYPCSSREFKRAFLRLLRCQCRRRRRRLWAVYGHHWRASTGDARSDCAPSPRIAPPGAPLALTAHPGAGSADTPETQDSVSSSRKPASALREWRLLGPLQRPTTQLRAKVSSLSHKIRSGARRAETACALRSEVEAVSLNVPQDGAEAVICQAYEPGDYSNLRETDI
Sequence of Beta-1 adrenergic receptor (Homo sapiens) (P08588 whole entry, looked up): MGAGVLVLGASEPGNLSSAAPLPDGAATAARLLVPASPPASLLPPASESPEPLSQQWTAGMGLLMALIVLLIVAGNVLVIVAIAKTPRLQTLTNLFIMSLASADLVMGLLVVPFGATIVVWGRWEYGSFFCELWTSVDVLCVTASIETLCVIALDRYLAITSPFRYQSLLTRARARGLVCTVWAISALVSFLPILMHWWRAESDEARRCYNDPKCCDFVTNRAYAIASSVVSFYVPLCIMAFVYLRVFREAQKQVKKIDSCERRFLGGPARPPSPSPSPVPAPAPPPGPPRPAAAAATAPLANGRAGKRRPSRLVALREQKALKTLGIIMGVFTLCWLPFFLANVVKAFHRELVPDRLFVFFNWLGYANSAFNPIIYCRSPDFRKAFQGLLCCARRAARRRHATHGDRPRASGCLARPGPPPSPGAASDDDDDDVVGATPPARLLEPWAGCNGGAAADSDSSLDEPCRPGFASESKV
Sequence of Alpha-1D adrenergic receptor (P25100 whole entry): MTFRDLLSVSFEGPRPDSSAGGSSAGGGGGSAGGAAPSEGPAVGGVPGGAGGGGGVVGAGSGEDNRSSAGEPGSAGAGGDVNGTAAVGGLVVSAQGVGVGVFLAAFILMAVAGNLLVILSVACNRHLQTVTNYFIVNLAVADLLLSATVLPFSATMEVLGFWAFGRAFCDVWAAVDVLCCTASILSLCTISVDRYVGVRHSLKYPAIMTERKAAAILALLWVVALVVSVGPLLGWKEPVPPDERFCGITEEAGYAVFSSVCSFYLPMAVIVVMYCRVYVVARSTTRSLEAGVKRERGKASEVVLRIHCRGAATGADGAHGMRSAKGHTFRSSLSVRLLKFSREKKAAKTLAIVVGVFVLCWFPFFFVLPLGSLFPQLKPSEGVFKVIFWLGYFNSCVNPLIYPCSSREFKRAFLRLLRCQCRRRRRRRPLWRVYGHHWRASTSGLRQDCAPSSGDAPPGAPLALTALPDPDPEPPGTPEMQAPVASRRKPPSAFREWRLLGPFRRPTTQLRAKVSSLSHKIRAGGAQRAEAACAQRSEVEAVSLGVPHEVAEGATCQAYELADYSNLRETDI
Sequence of Alpha-1B adrenergic receptor (P35368 whole entry): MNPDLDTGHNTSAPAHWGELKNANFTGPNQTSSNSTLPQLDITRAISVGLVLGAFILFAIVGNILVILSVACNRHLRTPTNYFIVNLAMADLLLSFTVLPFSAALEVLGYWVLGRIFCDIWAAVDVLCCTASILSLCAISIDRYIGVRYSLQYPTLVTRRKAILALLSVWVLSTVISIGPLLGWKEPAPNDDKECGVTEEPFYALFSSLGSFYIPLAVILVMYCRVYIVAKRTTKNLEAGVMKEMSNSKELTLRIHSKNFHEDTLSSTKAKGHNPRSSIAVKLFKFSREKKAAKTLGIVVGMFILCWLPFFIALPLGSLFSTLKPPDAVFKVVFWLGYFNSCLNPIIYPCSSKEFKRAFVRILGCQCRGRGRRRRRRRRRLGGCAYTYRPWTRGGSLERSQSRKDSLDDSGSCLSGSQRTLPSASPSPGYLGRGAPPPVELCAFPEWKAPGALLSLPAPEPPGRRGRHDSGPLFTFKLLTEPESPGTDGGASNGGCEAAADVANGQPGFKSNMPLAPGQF
Sequence of 5-hydroxytryptamine receptor 5A (Homo sapiens) (P47898 whole entry): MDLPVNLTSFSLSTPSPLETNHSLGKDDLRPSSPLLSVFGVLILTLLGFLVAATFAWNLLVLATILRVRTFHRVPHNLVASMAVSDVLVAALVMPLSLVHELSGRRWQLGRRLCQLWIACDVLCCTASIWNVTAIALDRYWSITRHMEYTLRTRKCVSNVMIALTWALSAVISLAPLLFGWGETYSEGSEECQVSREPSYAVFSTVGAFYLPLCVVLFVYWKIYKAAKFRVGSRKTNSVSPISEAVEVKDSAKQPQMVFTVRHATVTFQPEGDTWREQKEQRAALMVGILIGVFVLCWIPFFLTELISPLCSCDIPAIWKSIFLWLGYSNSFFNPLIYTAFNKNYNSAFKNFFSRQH

Row | Compound | IC30 [1] [nM] | inhibition [2] [%] | inhibition [3] [%] | Ki [4] [nM] | Ki [5] [nM] | Ki [6] | Ki [7] | inhibition [8] [%]
1 | C[C@H](c1cccc(C#N)c1)n1cc(Cl)cc(C(N)=O)c1=N [(R)-9s] | 15 | -5 | 0.88 | – | – | – | – | –
2 | C[C@@H](c1cccc(C#N)c1)n1cc(Cl)cc(C(N)=O)c1=N [(S)-9s] | – | – | – | 1070 | 1480 | > 1200 nM (not active) | > 2700 nM (not active) | -6.48
